Measured values from EPA's ToxValDB 9.5 (doi:10.2903/j.efsa.2008.169r).
In brackets after ≈: the same amount, converted by molar mass.

How the values were obtained:
Apis mellifera = details: acute; duration: 48 hours; dermal; mortality
Canidae = details: subchronic; duration: 90 days; oral; Dog Other; organ weight
Coturnix coturnix = details: mortality; for LD50: acute, oral
Daphnia magna = details: chronic/long-term, reproduction
Tagia sp. = details: acute; duration: 14 days; mortality
Aphidius rhopalosiphi = test: LR50; higher = less toxic; details: not reported; mortality

`COCCN(C(=O)CCl)c1c(C)cccc1C` [Dimethachlor] gave an LD50 (Apis mellifera) greater than 200 µg/piece, an NOAEL (Canidae) of 10 mg/kg-day and an LD50 (Coturnix coturnix; diet) greater than 1470 mg/kg-day. For the same molecule, the LD50 (Coturnix coturnix) was 524 mg/kg-day, the NOEL (Coturnix coturnix; reproduction developmental, duration: 140 days) was 102 mg/kg-day and the NOEC (Daphnia magna; duration: 21 days) was 0.476 mg/L. It also gave an NOEC (Daphnia magna; duration: 22 days) of 2.3 mg/L, an LC50 (Oncorhynchus mykiss; acute, duration: 96 hours, mortality) of 3.9 µg/mL (≈ 15.2 µM) and an NOEC (Oncorhynchus mykiss; chronic/long-term, duration: 21 days, growth) of 0.85 mg/L. The LD50 (Rattus norvegicus; acute, oral, mortality) was 1600 mg/kg-day, the NOAEL (Rattus norvegicus; chronic, duration: 2 years, body weight) was 11.1 mg/kg-day and the NOEL (Rattus norvegicus; chronic, mortality) was 20 mg/kg-day. It also gave an NOAEL (Rattus norvegicus; developmental, development) of 50 mg/kg-day, an LC50 (Tagia sp.) greater than 70 mg/kg and an LR50 (Aphidius rhopalosiphi) of 91 g/ha.
